The text below walks through data of patent publication US20250115582A1, “MOLECULAR GLUE DEGRADERS AND METHODS OF USING THE SAME” (Monte Rosa Therapeutics, Inc., priority 2022, published 2025).

As usually defined, the GI50 is the concentration that inhibits growth by half. A lower GI50 goes with more potent growth inhibition.

The target in one test is CRBN/DDB1 (Homo sapiens, UniProt Q96SW2). Description: HTRF binding assay (thalidomide probe displacement from CRBN/DDB1). The conditions noted are these: CRBN/DDB1 2.5 nM, Cy5-Thalidomide 100 nM, 30 min; geometric mean; read-out: HTRF_Thali_Disp_DR—geo_IC50. The gist of the method:
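Displacement of Cy5-thalidomide probe (100 nM) from CRBN/DDB1 (2.5 nM) with anti-His Tb cryptate in 20 mM HEPES, 20 mM NaCl, 0.2 mM TCEP, 0.2 mM EDTA, 0.005% Tween20; 10-point 1:3 series, 30 min ambient. HTRF 665/620 ratio; IC50 by 4-parameter fit, Ki via Cheng-Prusoff.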
(In general: In TR-FRET formats the signal depends on donor and acceptor labels being close together.)

A further test deals with SKCO1. Description: GI50 growth inhibition, CyQUANT, SKCO1. The settings on record: Homo sapiens, SK-CO-1, SKCO1 cells, 120 to 168 hours. The class given is cell-based. Here is the method: (§1) SKCO1, LS180, and LS174T cell lines were purchased from ATCC. CW2 cell line was purchased from Riken. GP2D cell line was purchased from Sigma/ECACC. All cell lines were cultured in manufacturer's recommended media at 37° C., 5% CO2. Briefly, cells were suspended in 200 μL of media and seeded at 300 to 1,800 cells per well in tissue culture treated 96-well plates with black walls and clear bottom. Plates were incubated overnight and initial (T0) read was performed the following day using CyQUANT Direct Cell Proliferation Assay Kit (Thermo Fisher Scientific) according to manufacturer's protocol. All compounds were solubilized in DMSO and prepared at 3-fold serial dilution, using 9 points starting at 30 μM as highest concentration, administered to cells and incubated for 120 to 168 hours, at which point CyQUANT assay measurement was performed using Acumen Cellista instrument (Ex/Em 480/520 nm). Media-only wells were used as blank, and 0.3% DMSO was used as DMSO-treated cell control. Growth inhibition (percent response) was calculated using the following formula in Excel: “=if ([Compound treated Day N]>[Untreated Day 0, AVG], ([Compound treated Day N]−[Untreated Day 0, AVG])/([Untreated Day N]−[Untreated Day 0, AVG])*100, ([Compound Treated Day N]−[Untreated Day 0, AVG])/([Untreated Day 0, AVG])*100)”. GI50 is the response corresponding to the 50% of untreated control.
(§2) GI50 data are reported in Tables 4a, 4b, 4c, 4d, and 4e for compounds in Table 1. In Tables 4a, 4b, 4c, 4d, and 4e below, According to the code, A represents a GI50 value of ≤0.1 μM, B represents a GI50 value>0.1 μM and ≤1 μM, C represents an GI50 value>1 μM.

For the next test, the system named is CW2. Description: GI50 growth inhibition, CyQUANT, CW2. The format is cell-based. The settings on record: Homo sapiens, CW-2, CW2 cells, 120 to 168 hours. Here is the method:
as §1, §2

The next test relates to LS174T. Description: GI50 growth inhibition, CyQUANT, LS174T. The format is cell-based. The conditions noted are these: Homo sapiens, LS174T cells, 120 to 168 hours. The procedure:
as §1, §2

Chain of CRBN/DDB1 (Q96SW2 whole entry): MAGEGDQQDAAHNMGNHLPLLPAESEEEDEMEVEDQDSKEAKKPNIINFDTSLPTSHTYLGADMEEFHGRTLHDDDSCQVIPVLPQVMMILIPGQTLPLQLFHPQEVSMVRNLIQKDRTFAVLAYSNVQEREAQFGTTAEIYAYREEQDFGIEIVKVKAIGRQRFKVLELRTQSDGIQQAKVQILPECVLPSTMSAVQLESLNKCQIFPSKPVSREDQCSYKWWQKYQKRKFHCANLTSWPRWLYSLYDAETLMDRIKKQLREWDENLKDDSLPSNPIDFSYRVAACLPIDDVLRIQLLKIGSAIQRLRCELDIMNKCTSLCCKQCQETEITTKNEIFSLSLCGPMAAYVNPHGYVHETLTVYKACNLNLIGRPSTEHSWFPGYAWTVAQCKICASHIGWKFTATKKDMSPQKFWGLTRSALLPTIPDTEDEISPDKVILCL
Chain of CRBN/DDB1 (Q16531 whole entry partner): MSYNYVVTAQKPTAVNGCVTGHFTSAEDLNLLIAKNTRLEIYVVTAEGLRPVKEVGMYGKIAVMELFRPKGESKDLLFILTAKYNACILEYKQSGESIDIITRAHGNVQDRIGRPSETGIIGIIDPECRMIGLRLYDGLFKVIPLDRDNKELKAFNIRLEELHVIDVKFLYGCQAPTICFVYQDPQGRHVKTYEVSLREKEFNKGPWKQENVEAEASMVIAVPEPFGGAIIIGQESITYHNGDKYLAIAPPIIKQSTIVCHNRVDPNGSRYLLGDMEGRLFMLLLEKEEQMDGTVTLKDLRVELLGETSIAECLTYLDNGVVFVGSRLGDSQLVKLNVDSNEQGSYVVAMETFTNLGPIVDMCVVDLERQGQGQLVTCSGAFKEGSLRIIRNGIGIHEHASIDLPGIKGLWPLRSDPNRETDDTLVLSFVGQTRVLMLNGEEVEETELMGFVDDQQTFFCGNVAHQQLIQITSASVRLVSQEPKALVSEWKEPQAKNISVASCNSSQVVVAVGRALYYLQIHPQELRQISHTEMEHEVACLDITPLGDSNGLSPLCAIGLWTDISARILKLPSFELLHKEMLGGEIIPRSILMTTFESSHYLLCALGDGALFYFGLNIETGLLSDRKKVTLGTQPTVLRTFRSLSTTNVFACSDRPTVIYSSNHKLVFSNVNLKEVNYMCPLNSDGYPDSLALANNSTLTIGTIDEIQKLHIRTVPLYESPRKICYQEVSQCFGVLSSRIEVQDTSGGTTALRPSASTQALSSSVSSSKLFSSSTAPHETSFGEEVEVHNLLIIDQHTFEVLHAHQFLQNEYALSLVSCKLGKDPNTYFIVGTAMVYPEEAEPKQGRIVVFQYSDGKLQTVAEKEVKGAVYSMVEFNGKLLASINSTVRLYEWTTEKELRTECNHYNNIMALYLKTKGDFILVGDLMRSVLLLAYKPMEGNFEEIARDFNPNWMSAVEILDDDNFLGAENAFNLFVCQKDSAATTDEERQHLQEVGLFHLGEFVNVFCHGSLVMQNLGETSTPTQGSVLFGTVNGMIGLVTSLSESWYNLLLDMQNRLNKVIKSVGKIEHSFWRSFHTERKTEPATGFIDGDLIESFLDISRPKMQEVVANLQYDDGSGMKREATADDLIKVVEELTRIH

For `O=C1CCC(N2Cc3cc(NC(=O)c4ccc(Cl)cc4)ccc3C2=O)C(=O)N1` (centres unmarked) [Compound 147], the IC50 at CRBN/DDB1 lay in the range of 100 to 1000 nM. Further, the figures for the GI50 in the test on SKCO1, in the test with CW2 and in the test with LS174T were 100 to 1000 nM, 100 to 1000 nM and over 1000 nM, respectively.

As for `O=C1CCC(N2Cc3cc(NC(=O)c4ncn(-c5ccccc5)c4C(F)(F)F)ccc3C2=O)C(=O)N1` (centres unmarked) [Compound 154, N-(2-(2,6-dioxopiperidin-3-yl)-1-oxoisoindolin-5-yl)-1-phenyl-5-(trifluoromethyl)-1H-imidazole-4-carboxamide], the IC50 on CRBN/DDB1 was 100 to 1000 nM. For the same compound, the GI50 is under 100 nM in the test on SKCO1, under 100 nM with CW2 and 100 to 1000 nM in the test with LS174T.
